Measurements as given in patent US7635716B2, “Substituted cyclopentanes or cyclopentanones as therapeutic agents” (Allergan, Inc., priority 2005, dated 2009).

Assays:
hEP4 = molecular target: T1, hEP4 (Homo sapiens, UniProt P35408); test: Radioligand binding, [3H]PGE2, HEK-293 cells stably expressing EP4 receptors; details: Table 1, second part; read-out: hEP4 Ki
T1 construct: expressed in transfected cells; host or cells: HEK-293 cells (plasma membrane fraction)
Experimental: (§1) HEK-293 cells stably expressing the human or feline FP receptor, or EP1, EP2, or EP4 receptors were washed with TME buffer, scraped from the bottom of the flasks, and homogenized for 30 sec using a Brinkman PT 10/35 polytron. TME buffer was added to achieve a final 40 ml volume in the centrifuge tubes (the composition of TME is 100 mM TRIS base, 20 mM MgCl2, […]; 10N HCl is added to achieve a pH of 7.4).
(§2) The cell homogenate was centrifuged at 19000 r.p.m. for 20 min at 4° C. using a Beckman Ti-60 rotor. The resultant pellet was resuspended in TME buffer to give a final 1 mg/ml protein concentration, as determined by Biorad assay. Radioligand binding competition assays vs. [^3H—]17 phenyl PGF2. (5 nM) were performed in a 100 μl volume for 60 min. Binding reactions were started by adding plasma membrane fraction. The reaction was terminated by the addition of 4 ml ice-cold TRIS-HCl buffer and rapid filtration through glass fiber GF/B filters using a Brandel cell harvester. The filters were washed 3 times with ice-cold buffer and oven dried for one hour.
[^3H—] PGE2 (specific activity 180 Ci mmol) was used as the radioligand for EP receptors. [^3H] 17-phenyl PGF2α was employed for FP receptor binding studies. […] A 200 μl assay volume was used. Incubations were for 60 min at 25° C. and were terminated by the addition of 4 ml of ice-cold 50 mM TRIS-HCl, followed by rapid filtration through Whatman GF/B filters and three additional 4 ml washes in a cell harvester (Brandel). Competition studies were performed using a final concentration of 5 nM [^3H]-PGE2, or 5 nM [^3H] 17-phenyl PGF2α and non-specific binding determined with 10^−5M of unlabeled PGE2, or 17-phenyl PGF2α, according to receptor subtype studied.

hEP2/Gqs5 = molecular target: T2, hEP2/Gqs5 (Homo sapiens, UniProt P43116); test: FLIPR calcium signal, HEK-293(EBNA) cells; type: cell-based; details: Table 1, second part; read-out: hEP2 flipr EC50
T2 construct: expressed in transfected cells; host or cells: HEK-293(EBNA) cells
T2 sequence (P43116 whole entry): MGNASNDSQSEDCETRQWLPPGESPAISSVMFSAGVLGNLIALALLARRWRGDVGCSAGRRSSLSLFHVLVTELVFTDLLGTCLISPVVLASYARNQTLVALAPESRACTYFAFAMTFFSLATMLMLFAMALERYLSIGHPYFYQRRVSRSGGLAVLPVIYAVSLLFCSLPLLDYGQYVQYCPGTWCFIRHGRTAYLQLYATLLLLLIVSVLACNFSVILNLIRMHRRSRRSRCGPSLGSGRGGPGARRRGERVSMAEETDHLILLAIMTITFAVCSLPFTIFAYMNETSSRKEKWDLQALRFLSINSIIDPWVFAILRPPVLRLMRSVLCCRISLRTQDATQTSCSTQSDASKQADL
Experimental: (§3) HEK-293(EBNA) cells, stably expressing one type or subtype of recombinant human prostaglandin receptors (prostaglandin receptors expressed: hDP/Gqs5; hEP1; hEP2/Gqs5; hEP3A/Gqi5; hEP4/Gqs5; hFP; hIP; hTP), were cultured in 100 mm culture dishes in high-glucose DMEM medium containing 10% fetal bovine serum, 2 mM 1-glutamine, 250 μg/ml geneticin (G418) and 200 μg/ml hygromycin B as selection markers, and 100 units/ml penicillin G, 100 μg/ml streptomycin and 0.25 μg/ml amphotericin B.
(§4) Cells were seeded at a density of 5×10^4 cells per well in Biocoat® Poly-D-lysine-coated black-wall, clear-bottom 96-well plates (Becton-Dickinson) and allowed to attach overnight in an incubator at 37° C. Cells were then washed two times with HBSS-HEPES buffer (Hanks Balanced Salt Solution without bicarbonate and phenol red, 20 mM HEPES, pH 7.4) using a Denley Cellwash plate washer (Labsystems). After 45 minutes of dye-loading in the dark, using the calcium-sensitive dye Fluo-4 AM at a final concentration of 2 μM, plates were washed four times with HBSS-HEPES buffer to remove excess dye leaving 100 μl in each well. Plates were re-equilibrated to 37° C. for a few minutes.
(§5) Cells were excited with an Argon laser at 488 nm, and emission was measured through a 510-570 nm bandwidth emission filter (FLIPR™, Molecular Devices, Sunnyvale, Calif.). Drug solution was added in a 50 μl volume to each well to give the desired final concentration. The peak increase in fluorescence intensity was recorded for each well. On each plate, four wells each served as negative (HBSS-HEPES buffer) and positive controls (standard agonists: BW245C (hDP); PGE2 (hEP1; hEP2/Gqs5; hEP3A/Gqi5; hEP4/Gqs5); PGF2. (hFP); carbacyclin (hIP); U-46619 (hTP), depending on receptor). The peak fluorescence change in each drug-containing well was then expressed relative to the controls.
(§6) Compounds were tested in a high-throughput (HTS) or concentration-response (CoRe) format. In the HTS format, forty-four compounds per plate were examined in duplicates at a concentration of 10^−5 M. To generate concentration-response curves, four compounds per plate were tested in duplicates in a concentration range between 10^−5 and 10^−11 M. The duplicate values were averaged. In either, HTS or CoRe format each compound was tested on at least 3 separate plates using cells from different passages to give an n≧3.

hEP4/Gqs5 = molecular target: T3, hEP4/Gqs5 (Homo sapiens, UniProt P35408); test: FLIPR calcium signal, HEK-293(EBNA) cells; type: cell-based; details: Table 1, second part; read-out: hEP4 flipr EC50
T3 construct: expressed in transfected cells; host or cells: HEK-293(EBNA) cells
T3 sequence (P35408 whole entry): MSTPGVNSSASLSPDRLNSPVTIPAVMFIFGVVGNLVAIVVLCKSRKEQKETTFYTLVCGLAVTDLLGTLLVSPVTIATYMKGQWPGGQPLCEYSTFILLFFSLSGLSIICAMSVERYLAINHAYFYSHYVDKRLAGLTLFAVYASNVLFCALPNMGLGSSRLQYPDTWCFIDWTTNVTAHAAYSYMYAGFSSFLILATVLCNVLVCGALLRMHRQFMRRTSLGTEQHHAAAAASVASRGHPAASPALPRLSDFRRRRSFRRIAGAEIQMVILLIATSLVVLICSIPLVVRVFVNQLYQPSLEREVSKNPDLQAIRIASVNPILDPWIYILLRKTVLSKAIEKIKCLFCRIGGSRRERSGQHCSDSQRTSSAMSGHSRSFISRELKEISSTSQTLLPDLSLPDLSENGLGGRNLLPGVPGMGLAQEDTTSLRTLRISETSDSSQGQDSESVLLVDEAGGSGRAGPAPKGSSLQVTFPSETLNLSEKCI
Experimental: as §3, §4, §5, §6

hIP = molecular target: T4, hIP (Homo sapiens, UniProt P43119); test: FLIPR calcium signal, HEK-293(EBNA) cells; type: cell-based; details: Table 1, second part; quantity not given, values match functional data (EC50) of first part; read-out: Other Receptors hIP
T4 construct: expressed in transfected cells; host or cells: HEK-293(EBNA) cells
T4 sequence (P43119 whole entry): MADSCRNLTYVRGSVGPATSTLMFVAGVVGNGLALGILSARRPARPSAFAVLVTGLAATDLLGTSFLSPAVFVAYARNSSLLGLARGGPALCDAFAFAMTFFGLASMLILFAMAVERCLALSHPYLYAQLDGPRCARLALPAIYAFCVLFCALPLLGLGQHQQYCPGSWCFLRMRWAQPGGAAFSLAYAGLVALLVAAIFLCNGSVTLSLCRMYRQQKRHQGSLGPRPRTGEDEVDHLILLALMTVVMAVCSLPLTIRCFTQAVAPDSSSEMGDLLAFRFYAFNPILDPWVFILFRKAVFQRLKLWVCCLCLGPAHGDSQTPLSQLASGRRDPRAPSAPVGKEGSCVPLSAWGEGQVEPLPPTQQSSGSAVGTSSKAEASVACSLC
Experimental: as §3, §4, §5, §6

hEP2 [1] = molecular target: T5, hEP2 (Homo sapiens, UniProt P43116); test: hEP2 cAMP functional assay; type: cell-based; details: Table 1, second part
T5 sequence (P43116 whole entry): as the sequence (P43116 whole entry) above

hEP2 [2] = molecular target: T5, hEP2; test: Competition binding, [3H]PGE2, HEK 293 cells stably expressing human EP2 receptors; parameters: expressed in transfected cells; host or cells: HEK 293 cells (membranes or whole cells); details: Table 1, second part; read-out: hEP2 Ki
Experimental: Competition binding experiments were performed in a medium containing Hank's balanced salt solution, Hepes 20 mM, pH 7.3, membranes (˜60 μg protein) or 2×10^5 cells from HEK 293 cells stably expressing human EP2 receptors, [^3H]PGE2 (10 nM) and various concentrations of test compounds in a total volume of 300 μL. Reaction mixtures were incubated at 23° C. for 60 min, and were filtered over Whatman GF/B filters under vacuum. Filters were washed three times with 5 ml ice-cold buffer containing 50 mM Tris/HCl (pH 7.3). Non-specific binding was estimated in the presence of excess unlabeled PGE2 (10 μM). Binding data fitted to the binding model for a single class of binding sites, using nonlinear regression analysis. IC50 values thus obtained were converted to Ki using the equation of Ki=(IC50/(1+[L]/KD) where [L] represents PGE2 concentration (10 nM) and KD the dissociation constant for [^3H]PGE2 at human EP2 receptors (40 nM).
as §1, §2
[^3H—] PGE2 (specific activity 180 Ci mmol) was used as the radioligand for EP receptors. [^3H] 17-phenyl PGF2α was employed for FP receptor binding studies. Binding studies employing EP1, EP2, EP4 and FP receptors were performed in duplicate in at least three separate experiments. A 200 μl assay volume was used. Incubations were for 60 min at 25° C. and were terminated by the addition of 4 ml of ice-cold 50 mM TRIS-HCl, followed by rapid filtration through Whatman GF/B filters and three additional 4 ml washes in a cell harvester (Brandel). Competition studies were performed using a final concentration of 5 nM [^3H]-PGE2, or 5 nM [^3H] 17-phenyl PGF2α and non-specific binding determined with 10^−5M of unlabeled PGE2, or 17-phenyl PGF2α, according to receptor subtype studied.

T1 sequence (P35408 whole entry): as the sequence (P35408 whole entry) above

- Ki (hEP4): 14700 nM
- EC50 (hEP2/Gqs5): 192 nM
- EC50 (hEP4/Gqs5): > 10000 nM
- EC50 (hIP): 2690 nM
- EC50 (hEP2 [1]): 41 nM
- Ki (hEP2 [2]): 291 nM
Compound: O=Cc1cccc(OC[C@@H]2[C@@H](C/C=C\CCCC(=O)O)[C@H](Cl)C[C@H]2O)c1 [Example 48, (Z)-7-[(1R,2S,3R,5R)-5-Chloro-2-(3-formyl-phenoxymethyl)-3-hydroxy-cyclopentyl]-hept-5-enoic acid]
